Experimental data: patent US20100292200A1, “Methods for Modulating Apoptosis in Platelets” (The Walter and Eliza Hall Institute of Medical Research, priority 2006, published 2010)
Entries after “also recorded” stand apart in the source; their conditions may differ.

Key:
[1] = tested on: cells from the bone marrow of C57BL/6 mice; experiment: formation of hematopoietic progenitors in vitro (soft agar colony cultures); type: cell-based, mouse
Procedure: Cells (25,000) from the bone marrow of C57BL/6 mice were cultured in soft agar with G-CSF, IL-3 and EPO for 7 r d, stained and counted. Saline or ABT-737 was added on days 1, 3 and 5. […] G, granulocyte colony; GM, granulocyte/macrophage colony; M, macrophage colony; EO, eosinophil colony; Meg, megakaryocyte colony. Total colony counts are the means of two cultures; megakaryocyte colony counts represent the means±SD of four indepdendent cultures.
The hematocrit, platelet and white cell count, and differential were determined by using either manual or automated (Advia 120) counting techniques. In most experiments, with the exception of data shown in FIGS. 1A and 6E, the data was collected from male mice. Clonal cultures of 2.5×10^4 adult bone marrow cells or 5×10^4 spleen cells in 1 mL of 0.3% agar in DMEM supplemented with newborn calf serum (20%) were stimulated with a mixture of 100 ng/mL murine stem cell factor, 10 ng/mL murine IL-3, 4 units/mL human EPO and incubated for 7 days at 37° C. in a fully humidified atmosphere of 10% CO2 in air. Agar cultures were fixed, sequentially stained for acetylcholinesterase, Luxol fast blue and hematoxylin; the cellular composition of each colony determined at ×100-400 magnification. Megakaryocyte counts were performed by manual counting from sections of sternum and spleen after staining with hematoxylin/eosin. A minimum of 10 high-power fields (×200) were scored.

mouse platelets = experiment: Ex vivo platelet assays, mouse platelets in culture (platelet counts, caspase immunoblotting); type: cell-based; details: ABT-737 1 μM
Procedure: (A) Expression of Bcl-2 family proteins in platelets. […] (C) ABT-737 triggers caspase activation in platelets. […] (F) Absence of Bak protects platelets against ABT-737.
Cell death was induced with ABT-737 (up to 5 μM, Abbott Laboratories (Oltersdorf et al., 2005 (supra)), etoposide (up to 100 μM, Pharmacia) or staurosporine (10 μM, Sigma); 50 μM qVD.OPh (Enzyme Systems) was also added in some experiments. Cell viability was determined by flow cytometry for cells that exclude propidium iodide or manual counting using a hemacytometer.
Other antibodies for immunoblotting were mouse monoclonal anti-Bcl-xL (2H12; BD), anti-Bcl-2 (clone 7; BD), anti-human Bcl-2 (Bcl-2-100), anti-actin (AC40; Sigma), anti-Bax (2D2 and 5B7; Sigma), anti-Mcl-1 (clone 22: BD); rat monoclonal anti-Mcl-1 (14C11; D Huang, unpublished), rabbit polyclonal anti-Bak (B5897: Sigma), anti-Mcl-1 (Rockland), anti-caspase-3 (585; gift of Y. Lazebnik), anti-cleaved p17 fragment of caspase-3 (AB3623; Chemicon), anti-gelsolin (gift of D Kwiatkowski) (Kothakota et al., Science, 278:294-298, 1997); hamster monoclonal anti-mouse Bcl-2 (3F11; BD). Secondary antibodies included HRP-conjugated anti-rat or anti-hamster IgG (SouthernBiotech), anti-mouse or anti-rabbit IgG (Chemicon), and anti-mouse IgG Fcγ chain specific antibody (Jackson ImmunoResearch). The proteins were detected using Enhanced ChemiLuminescence (ECL; GE Healthcare).
Platelets were counted manually in triplicate using a hemacytometer.

reticulated platelets = experiment: Reticulated platelet labeling (thiazole orange) after ABT-737; type: in vivo, mouse; details: thiazole orange staining after a single dose
Procedure: (§1) Animals were bled 2-24 h afterwards and platelet counts determined. […] (B) Platelet recovery after a single dose of ABT-737. Platelet counts (blue symbols; left axis) were determined 2-96 h after a single dose of ABT-737 (red arrow). […] Orange symbols represent serum TPO levels (right axis). (C) Cyclical acute thrombocytopaenia triggered by ABT-737. Platelet counts were determined before and 8 h after a single dose of ABT-737 (red arrows) given at weekly intervals. […] During recovery, baseline counts drifted upwards. (D) ABT-737 acts selectively on aged platelets. […] (E) Synchronizing platelets. […] During recovery, the newly synthesized younger platelets are larger as indicated by the increased mean platelet volume (blue symbols; right axis). (F) Young platelets are resistant to ABT-737. Wild type C57BL/6 mice were treated with APS, and then injected with ABT-737 (red arrows) either 2 or 7 days afterwards. Absolute platelet counts and the % of reticulated platelets were measured. The top panels show representative flow cytometric profiles following thiazole orange staining before or after ABT-737 injections. The bottom panels show platelet counts prior to or 2 h post ABT-737 injection. Data in (B), (C), (E) and (F) represent means±SD of 3-6 mice at each time point.
Staining of reticulated platelets was performed using thiazole orange. […]

serum TPO levels = experiment: Thrombopoietin analysis (serum TPO ELISA) in ABT-737 treated mice; type: in vivo, mouse; details: after ABT-737
Procedure: as §1, with “The top panels show representative flow cytometric profiles following thiazole orange staining before or after ABT-737 injections. The bottom panels show platelet counts prior to or 2 h post ABT-737 injection. Data in (B), (C), (E) and (F) represent means±SD of 3-6 mice at each time point.” left out
Blood was collected from the retroorbital sinus using a non-heparinized capillary tube into an eppendorf tube and incubated at room temperature for 2 h. […] Thrombopoietin levels were measured by enzyme-linked immunosorbent assay (ELISA) using the Quantikine Mouse TPO Immunoassay kit (R&D Systems) according to the manufacturer's instructions.

human platelets = details: 1 μM for 1 or 2 h
Procedure: Human whole blood was obtained with informed consent (approved by the Institutional Review Board), Platelet rich plasma was obtained and incubated at room temperature with drug or control for up to 2 h. Platelets were counted manually in triplicate using a hemacytometer.

[2] = tested on: Bcl-2, Bcl-xL, Bcl-w, Mcl-1, A1; details: Oltersdorf et al., 2005; van Delft et al., 2006; cited from earlier work
[3] = mouse, in vivo; cited from earlier work
[4] = ABT-737 1 μM added on days 1, 3 and 5, 25,000 bone marrow cells, 7 d, mean of two cultures
[5] = progenitor cell cultures in vitro

## CN(C)CC[C@H](CSc1ccccc1)Nc1ccc(S(=O)(=O)NC(=O)c2ccc(N3CCN(Cc4ccccc4-c4ccc(Cl)cc4)CC3)cc2)cc1[N+](=O)[O-] [ABT-737]
[1]; [4]
  Blast colonies: 16
  Eo, eosinophil colony: 1
  G, granulocyte colony: 14
  GM, granulocyte/macrophage colony: 6
  M, macrophage colony: 14
[1]; ABT-737 1 μM added on days 1, 3 and 5, 25,000 bone marrow cells, 7 d, means±SD of four independent cultures
  Meg, megakaryocyte colony: 14 ± 6
[1]; [5]
  effect on formation of other colonies: unaffected
  effect on megakaryocyte colony formation: no effect; also recorded: minor effect
Mouse platelets; counted after 1 h
  loss of wild type platelets in culture: Bak-mediated caspase-dependent loss of platelets
Mouse platelets; immunoblotting
  caspase-3 activation and gelsolin cleavage in cultured platelets: triggered cleavage and full activation of caspase-3 as well as cleavage of gelsolin; also recorded: induced complete caspase-3 activation and gelsolin cleavage
Mouse platelets; Bak^-/- vs wild type platelets, 1 h
  action of ABT-737 on viability of Bak^-/- platelets in culture: markedly blunted
Reticulated platelets
  proportion of reticulated platelets post ABT-737: transient increase; also recorded: increased proportion
Serum TPO levels
  TPO levels in ABT-737 treated mice: sustained production; also recorded: normal, or probably even elevated
Human platelets
  susceptibility of human platelets to ABT-737: caspase-dependent susceptibility
[2]
  selectivity among pro-survival Bcl-2 family proteins: selectively targets Bcl-2, Bcl-xL and Bcl-w but not the other pro-survival proteins Mcl-1 or A1
[3]
  tolerability in mice: well-tolerated
